Assay results reported in patent US6737383B1, “Herbicidal oxadiazolidines” (priority 1999, dated 2004).

Assays:
[1] = tested on: morningglory; experiment: Test B pre/postemergence morningglory; type: in vivo, Ipomoea hederacea; conditions: for Plant response rating, Morningglory: scale of 0 to 10 where 0 is no effect and 10 is complete control
Summary of the method: (§1)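 Test chemicals in a non-phytotoxic solvent mixture with surfactant were sprayed preemergence onto planted seeds and postemergence onto plants 2 to 18 cm tall (1- to 4-leaf stage). After twelve to sixteen days in a greenhouse, injury was visually rated against untreated controls from 0 (no effect) to 10 (complete control).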

[2] = tested on: bedstraw; experiment: Test B pre/postemergence bedstraw; type: in vivo, Galium aparine
Summary of the method: as §1

[3] = tested on: crabgrass; experiment: Test B pre/postemergence crabgrass; type: in vivo, Digitaria sanguinalis
Summary of the method: as §1

[4] = tested on: duck salad; experiment: Test B flood test duck salad; type: in vivo, Heteranthera limosa
Summary of the method: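 Read-out is a visual response score from 0 (no effect) to 10 (complete control), assigned by comparison with untreated controls. Treatment was applied at the 2-leaf stage, and plants stayed in the greenhouse for twelve to sixteen days before scoring.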

[5] = tested on: cocklebur; experiment: Test B pre/postemergence cocklebur; type: in vivo, Xanthium strumarium
Summary of the method: as §1

[6] = tested on: pigweed; experiment: Test B pre/postemergence pigweed; type: in vivo, Amaranthus retroflexus; conditions: for Plant response rating, Redroot pigweed: scale of 0 to 10 where 0 is no effect and 10 is complete control
Summary of the method: as §1

[7] = tested on: sugar beet; experiment: Test B pre/postemergence sugar beet; type: in vivo, Beta vulgaris; conditions: for Plant response rating, Sugarbeets: scale of 0 to 10 where 0 is no effect and 10 is complete control
Summary of the method: as §1

[8] = tested on: corn; experiment: Test B pre/postemergence corn; type: in vivo, Zea mays
Summary of the method: as §1

[9] = tested on: giant foxtail; experiment: Test B pre/postemergence giant foxtail; type: in vivo, Setaria faberii
Summary of the method: as §1

[10] = tested on: wheat; experiment: Test B pre/postemergence wheat; type: in vivo, Triticum aestivum; conditions: for Plant response rating, Wheat: scale of 0 to 10 where 0 is no effect and 10 is complete control
Summary of the method: as §1

[11] = tested on: rape; experiment: Test B pre/postemergence rape; type: in vivo, Brassica napus; conditions: for Plant response rating, Rape: scale of 0 to 10 where 0 is no effect and 10 is complete control
Summary of the method: as §1

[12] = tested on: velvetleaf; experiment: Test B pre/postemergence velvetleaf; type: in vivo, Abutilon theophrasti; conditions: for Plant response rating, Velvetleaf: scale of 0 to 10 where 0 is no effect and 10 is complete control
Summary of the method: as §1

[13] = tested on: surinam grass; experiment: Test B pre/postemergence surinam grass; type: in vivo, Brachiaria decumbens
Summary of the method: as §1

[14] = tested on: purple nutsedge; experiment: Test B pre/postemergence purple nutsedge; type: in vivo, Cyperus rotundus; conditions: for Plant response rating, Nutsedge: scale of 0 to 10 where 0 is no effect and 10 is complete control
Summary of the method: as §1

[15] = tested on: soybean; experiment: Test B pre/postemergence soybean; type: in vivo, Glycine max; conditions: for Plant response rating, Soybean: scale of 0 to 10 where 0 is no effect and 10 is complete control
Summary of the method: as §1

[16] = Postemergence, Rate 250 g/ha, scale 0 to 10
[17] = Preemergence, Rate 250 g/ha, scale 0 to 10, 0 is no effect, 10 is complete control
[18] = Preemergence, Rate 500 g/ha, scale 0 to 10, 0 is no effect, 10 is complete control
[19] = Rate 62 g/ha, Postemergence, scale 0 to 10 (0 no effect, 10 complete control)
[20] = Rate 125 g/ha, Postemergence, scale 0 to 10, 0 is no effect, 10 is complete control
[21] = Preemergence, Rate 125 g/ha, scale of 0 to 10 where 0 is no effect and 10 is complete control
[22] = Postemergence, Rate 500 g/ha, scale of 0 to 10 where 0 is no effect and 10 is complete control
[23] = Preemergence, Rate 62 g/ha, scale of 0 to 10 where 0 is no effect and 10 is complete control

CC(C)N(C(=O)n1oc(=O)n(CC2=NOCC2)c1=O)c1ccc(F)cc1 [Compound 466]
9: Crabgrass plant response rating [3, 16] | Crabgrass plant response rating [3, 22] | Plant response rating, Crabgrass [3, 21] | Crabgrass plant response rating [3, 19] | Crabgrass plant response rating [3, 20] | Redroot pigweed plant response rating [6, 17] | Giant foxtail plant response rating [9, 16] | Giant foxtail plant response rating [9, 22] | Plant response rating, Giant foxtail [9, 23] | Giant foxtail plant response rating [9, 19] | B. signalgrass plant response rating [13, 18]
7: Plant response rating, Redroot pigweed ([6]; Preemergence, Rate 125 g/ha) | B. signalgrass plant response rating [13, 22]
6: Plant response rating, Crabgrass [3, 23] | B. signalgrass plant response rating [13, 17]
0: Plant response rating, Morningglory ([1]; Preemergence, Rate 62 g/ha) | Plant response rating, Morningglory ([1]; Preemergence, Rate 125 g/ha) | Morningglory plant response rating [1, 17] | Morningglory plant response rating [1, 18] | Morningglory plant response rating [1, 19] | Plant response rating, Ducksalad (0 to 10 scale, 0 is no effect, 10 is complete control) ([4]; Rate 62 g/ha, flood test species, Pre-emergence, visual evaluation after twelve to sixteen days) | Ducksalad plant response rating (0 to 10 scale, 0 is no effect, 10 is complete control) ([4]; Rate 125 g/ha, under heading Pre-emergence, flood test species, visual evaluation after twelve to sixteen days) | Ducksalad plant response rating ([4]; Rate 250 g/ha, Pre-emergence (flood test species), scale 0 to 10, 0 is no effect, 10 is complete control) | Ducksalad plant response rating ([4]; Rate 500 g/ha, Pre-emergence, flood test species, scale 0 to 10 (0 no effect, 10 complete control)) | Cocklebur plant response rating [5, 16] | Plant response rating, Cocklebur [5, 23] | Plant response rating, Cocklebur [5, 21] | Cocklebur plant response rating [5, 17] | Cocklebur plant response rating [5, 18] | Cocklebur plant response rating [5, 19] | Cocklebur plant response rating [5, 20] | Sugarbeets plant response rating [7, 16] | Plant response rating, Sugarbeets ([7]; Preemergence, Rate 62 g/ha) | Plant response rating, Sugarbeets ([7]; Preemergence, Rate 125 g/ha) | Sugarbeets plant response rating [7, 19] | Sugarbeets plant response rating [7, 20] | Corn plant response rating [8, 16] | Plant response rating, Corn [8, 23] | Plant response rating, Corn [8, 21] | Corn plant response rating [8, 17] | Corn plant response rating [8, 19] | Corn plant response rating [8, 20] | Wheat plant response rating [10, 16] | Plant response rating, Wheat ([10]; Preemergence, Rate 62 g/ha) | Plant response rating, Wheat ([10]; Preemergence, Rate 125 g/ha) | Wheat plant response rating [10, 17] | Wheat plant response rating [10, 19] | Wheat plant response rating [10, 20] | Rape plant response rating [11, 16] | Plant response rating, Rape ([11]; Preemergence, Rate 62 g/ha) | Plant response rating, Rape ([11]; Preemergence, Rate 125 g/ha) | Rape plant response rating [11, 17] | Rape plant response rating [11, 19] | Rape plant response rating [11, 20] | Velvetleaf plant response rating [12, 16] | Plant response rating, Velvetleaf ([12]; Preemergence, Rate 62 g/ha) | Plant response rating, Velvetleaf ([12]; Preemergence, Rate 125 g/ha) | Velvetleaf plant response rating [12, 19] | Velvetleaf plant response rating [12, 20] | Plant response rating, B. signalgrass [13, 23] | Nutsedge plant response rating [14, 16] | Plant response rating, Nutsedge ([14]; Preemergence, Rate 62 g/ha) | Plant response rating, Nutsedge ([14]; Preemergence, Rate 125 g/ha) | Nutsedge plant response rating [14, 17] | Nutsedge plant response rating [14, 19] | Nutsedge plant response rating [14, 20] | Plant response rating, Soybean ([15]; Preemergence, Rate 62 g/ha)
1: Cocklebur plant response rating [5, 22] | Plant response rating, Redroot pigweed ([6]; Preemergence, Rate 62 g/ha) | Wheat plant response rating [10, 18]
10: Crabgrass plant response rating [3, 17] | Crabgrass plant response rating [3, 18] | Redroot pigweed plant response rating [6, 18] | Plant response rating, Giant foxtail [9, 21] | Giant foxtail plant response rating [9, 17] | Giant foxtail plant response rating [9, 18]
2: Morningglory plant response rating [1, 16] | Morningglory plant response rating [1, 20] | Plant response rating, Bedstraw [2, 21] | Bedstraw plant response rating [2, 18] | Redroot pigweed plant response rating [6, 19] | Redroot pigweed plant response rating [6, 20] | Sugarbeets plant response rating [7, 17] | Corn plant response rating [8, 22] | B. signalgrass plant response rating [13, 19] | B. signalgrass plant response rating [13, 20] | Plant response rating, Soybean ([15]; Preemergence, Rate 125 g/ha) | Soybean plant response rating [15, 17]
3: Redroot pigweed plant response rating [6, 16] | Rape plant response rating [11, 18] | B. signalgrass plant response rating ([13]; Postemergence, Rate 250 g/ha, scale 0 to 10, 0 no effect, 10 complete control) | Plant response rating, B. signalgrass [13, 21]
4: Bedstraw plant response rating [2, 16] | Bedstraw plant response rating [2, 19] | Sugarbeets plant response rating [7, 18] | Corn plant response rating [8, 18] | Velvetleaf plant response rating [12, 17] | Velvetleaf plant response rating [12, 18] | Soybean plant response rating [15, 16] | Soybean plant response rating [15, 18] | Soybean plant response rating [15, 19] | Soybean plant response rating [15, 20]
